Drawing on US11331369B2, “Endoparasitic depsipeptides” (Zoetis Services LLC, priority 2017, dated 2022), this text covers minimal effective concentration for 14 compounds.

The test system of this assay is microfilariae of Dirofilaria immitis. In words: Dirofilaria immitis, Microfilaria (DiMF) In vitro Assay. The following applies: 72 h, read-out: DiMF Minimum Effective Dose (MED), approximately 72 hours incubation, microfilariae assessed for survival or paralysis. The format is cell-based.
As for `COCc1nccn1Cc1ccc(C[C@H]2OC(=O)[C@H](CC(C)C)N(C)C(=O)[C@@H](C)OC(=O)[C@H](CC(C)C)N(C)C(=O)[C@@H](Cc3ccc(Cn4ccnc4COC)cc3)OC(=O)[C@H](CC(C)C)N(C)C(=O)[C@@H](C)OC(=O)[C@H](CC(C)C)N(C)C2=O)cc1` [Example 6-19, (3S,6R,9S,12R,15S,18R,21S,24R)-3,9,15,21-tetraisobutyl-6,18-bis(4-((2-(methoxymethyl)-1H-imidazol-1-yl)methyl)benzyl)-4,10,12,16,22,24-hexamethyl-1,7,13,19-tetraoxa-4,10,16,22-tetraazacyclotetracosan-2,5,8,11,14,17,20,23-octaone], the minimal effective concentration fell in the range of 0.001 to 0.01 µM.

Regarding `CC(C)C[C@H]1C(=O)O[C@H](Cc2ccc(Cn3nnc4ccccc43)cc2)C(=O)N(C)[C@@H](CC(C)C)C(=O)O[C@H](C)C(=O)N(C)[C@@H](CC(C)C)C(=O)O[C@H](Cc2ccc(Cn3nnc4ccccc43)cc2)C(=O)N(C)[C@@H](CC(C)C)C(=O)O[C@H](C)C(=O)N1C` [Example 9-29, (3S,6R,9S,12R,15S,18R,21S,24R)-6,18-bis(4-((1H-benzo[d][1,2,3]triazol-1-yl)methyl)benzyl)-3,9,15,21-tetraisobutyl-4,10,12,16,22,24-hexamethyl-1,7,13,19-tetraoxa-4,10,16,22-tetraazacyclotetracosan-2,5,8,11,14,17,20,23-octaone], the minimal effective concentration was in the range of 0.01 to 0.1 µM. For `CC(C)C[C@H]1C(=O)O[C@H](Cc2ccc(Cn3cc(C4=CCCC4)cn3)cc2)C(=O)N(C)[C@@H](CC(C)C)C(=O)O[C@H](C)C(=O)N(C)[C@@H](CC(C)C)C(=O)O[C@H](Cc2ccccc2)C(=O)N(C)[C@@H](CC(C)C)C(=O)O[C@H](C)C(=O)N1C` [Example 2-61, (3S,6R,9S,12R,15S,18R,21S,24R)-6-benzyl-18-(4-((4-(cyclopent-1-en-1-yl)-1H-pyrazol-1-yl)methyl)benzyl)-3,9,15,21-tetraisobutyl-4,10,12,16,22,24-hexamethyl-1,7,13,19-tetraoxa-4,10,16,22-tetraazacyclotetracosan-2,5,8,11,14,17,20,23-octaone], the minimal effective concentration fell in the range of 0.01 to 0.1 µM. For the compound `Cc1nn(Cc2ccc(C[C@H]3OC(=O)[C@H](CC(C)C)N(C)C(=O)[C@@H](C)OC(=O)[C@H](CC(C)C)N(C)C(=O)[C@@H](Cc4ccccc4)OC(=O)[C@H](CC(C)C)N(C)C(=O)[C@@H](C)OC(=O)[C@H](CC(C)C)N(C)C3=O)cc2)c(C)c1Br` [Example 2-17, (3S,6R,9S,12R,15S,18R,21S,24R)-6-benzyl-18-(4-((4-bromo-3,5-dimethyl-1H-pyrazol-1-yl)methyl)benzyl)-3,9,15,21-tetraisobutyl-4,10,12,16,22,24-hexamethyl-1,7,13,19-tetraoxa-4,10,16,22-tetraazacyclotetracosan-2,5,8,11,14,17,20,23-octaone], the minimal effective concentration lay in the range of 0.01 to 0.1 µM.

Regarding `CC(C)C[C@H]1C(=O)O[C@H](Cc2ccc(Cn3nccc3Cl)cc2)C(=O)N(C)[C@@H](CC(C)C)C(=O)O[C@H](C)C(=O)N(C)[C@@H](CC(C)C)C(=O)O[C@H](Cc2ccc(Cn3ccc(Cl)n3)cc2)C(=O)N(C)[C@@H](CC(C)C)C(=O)O[C@H](C)C(=O)N1C` [Example 1a-46, (3S,6R,9S,12R,15S,18R,21S,24R)-6-(4-((3-chloro-1H-pyrazol-1-yl)methyl)benzyl)-18-(4-((5-chloro-1H-pyrazol-1-yl)methyl)benzyl)-3,9,15,21-tetraisobutyl-4,10,12,16,22,24-hexamethyl-1,7,13,19-tetraoxa-4,10,16,22-tetraazacyclotetracosan-2,5,8,11,14,17,20,23-octaone], the minimal effective concentration fell in the range of 0.001 to 0.01 µM. Take `CC(C)C[C@H]1C(=O)O[C@H](Cc2ccc(CN3CC(CO)OC3=O)cc2)C(=O)N(C)[C@@H](CC(C)C)C(=O)O[C@H](C)C(=O)N(C)[C@@H](CC(C)C)C(=O)O[C@H](Cc2ccccc2)C(=O)N(C)[C@@H](CC(C)C)C(=O)O[C@H](C)C(=O)N1C` (stereo partly drawn) [Example 10-24, (3S,6R,9S,12R,15S,18R,21S,24R)-6-benzyl-18-(4-((5-(hydroxymethyl)-2-oxooxazolidin-3-yl)methyl)benzyl)-3,9,15,21-tetraisobutyl-4,10,12,16,22,24-hexamethyl-1,7,13,19-tetraoxa-4,10,16,22-tetraazacyclotetracosan-2,5,8,11,14,17,20,23-octaone]: the minimal effective concentration was 0.01 to 0.1 µM. As to `CC(C)C[C@H]1C(=O)O[C@H](Cc2ccc(Cn3ccnc3C(C)C)cc2)C(=O)N(C)[C@@H](CC(C)C)C(=O)O[C@H](C)C(=O)N(C)[C@@H](CC(C)C)C(=O)O[C@H](Cc2ccc(Cn3ccnc3C(C)C)cc2)C(=O)N(C)[C@@H](CC(C)C)C(=O)O[C@H](C)C(=O)N1C` [Example 6-8, (3S,6R,9S,12R,15S,18R,21S,24R)-3,9,15,21-tetraisobutyl-6,18-bis(4-((2-isopropyl-1H-imidazol-1-yl)methyl)benzyl)-4,10,12,16,22,24-hexamethyl-1,7,13,19-tetraoxa-4,10,16,22-tetraazacyclotetracosan-2,5,8,11,14,17,20,23-octaone], the minimal effective concentration lay in the range of 0.01 to 0.1 µM. In the case of `CCc1nn(Cc2ccc(C[C@H]3OC(=O)[C@H](CC(C)C)N(C)C(=O)[C@@H](C)OC(=O)[C@H](CC(C)C)N(C)C(=O)[C@@H](Cc4ccccc4)OC(=O)[C@H](CC(C)C)N(C)C(=O)[C@@H](C)OC(=O)[C@H](CC(C)C)N(C)C3=O)cc2)c(CC)c1[N+](=O)[O-]` [Example 2-82, (3S,6R,9S,12R,15S,18R,21S,24R)-6-benzyl-18-(4-((3,5-diethyl-4-nitro-1H-pyrazol-1-yl)methyl)benzyl)-3,9,15,21-tetraisobutyl-4,10,12,16,22,24-hexamethyl-1,7,13,19-tetraoxa-4,10,16,22-tetraazacyclotetracosan-2,5,8,11,14,17,20,23-octaone], the minimal effective concentration was 0.01 to 0.1 µM. The value for `CC(C)C[C@H]1C(=O)O[C@H](Cc2ccc(Cn3c(=O)ccc4ccccc43)cc2)C(=O)N(C)[C@@H](CC(C)C)C(=O)O[C@H](C)C(=O)N(C)[C@@H](CC(C)C)C(=O)O[C@H](Cc2ccccc2)C(=O)N(C)[C@@H](CC(C)C)C(=O)O[C@H](C)C(=O)N1C` [Example 10-12, (3S,6R,9S,12R,15S,18R,21S,24R)-6-benzyl-3,9,15,21-tetraisobutyl-4,10,12,16,22,24-hexamethyl-18-(4-((2-oxoquinolin-1 (2H)-yl)methyl)benzyl)-1,7,13,19-tetraoxa-4,10,16,22-tetraazacyclotetracosan-2,5,8,11,14,17,20,23-octaone] was 0.01 to 0.1 µM; that for `CC(C)C[C@H]1C(=O)O[C@H](Cc2cccc(Cn3cc(-c4ccccn4)cn3)c2)C(=O)N(C)[C@@H](CC(C)C)C(=O)O[C@H](C)C(=O)N(C)[C@@H](CC(C)C)C(=O)O[C@H](Cc2cccc(Cn3cc(-c4ccccn4)cn3)c2)C(=O)N(C)[C@@H](CC(C)C)C(=O)O[C@H](C)C(=O)N1C` [Example 4-16, (3S,6R,9S,12R,15S,18R,21S,24R)-3,9,15,21-tetraisobutyl-4,6,10,16,18,22-hexamethyl-12,24-bis(3-((4-(pyridin-2-yl)-1H-pyrazol-1-yl)methyl)benzyl)-1,7,13,19-tetraoxa-4,10,16,22-tetraazacyclotetracosan-2,5,8,11,14,17,20,23-octaone] was 0.01 to 0.1 µM; that for `CC(C)C[C@H]1C(=O)O[C@H](Cc2ccc(Cn3ccc(C(C)(C)C)n3)cc2)C(=O)N(C)[C@@H](CC(C)C)C(=O)O[C@H](C)C(=O)N(C)[C@@H](CC(C)C)C(=O)O[C@H](Cc2ccccc2)C(=O)N(C)[C@@H](CC(C)C)C(=O)O[C@H](C)C(=O)N1C` [Example 2-72, (3S,6R,9S,12R,15S,18R,21S,24R)-6-benzyl-18-(4-((3-(tert-butyl)-1H-pyrazol-1-yl)methyl)benzyl)-3,9,15,21-tetraisobutyl-4,10,12,16,22,24-hexamethyl-1,7,13,19-tetraoxa-4,10,16,22-tetraazacyclotetracosan-2,5,8,11,14,17,20,23-octaone] was 0.01 to 0.1 µM. Turning to `CC(C)C[C@H]1C(=O)O[C@H](Cc2ccc(Cn3cc(N4CCCCC4)cn3)cc2)C(=O)N(C)[C@@H](CC(C)C)C(=O)O[C@H](C)C(=O)N(C)[C@@H](CC(C)C)C(=O)O[C@H](Cc2ccc(Cn3cc(N4CCCCC4)cn3)cc2)C(=O)N(C)[C@@H](CC(C)C)C(=O)O[C@H](C)C(=O)N1C` [Example 1b-183, (3S,6R,9S,12R,15S,18R,21S,24R)-3,9,15,21-tetraisobutyl-4,6,10,16,18,22-hexamethyl-12,24-bis(4-((4-(piperidin-1-yl)-1H-pyrazol-1-yl)methyl)benzyl)-1,7,13,19-tetraoxa-4,10,16,22-tetraazacyclotetracosan-2,5,8,11,14,17,20,23-octaone], the minimal effective concentration fell in the range of 0.01 to 0.1 µM. The figure for `CCOc1cc(C)nn1Cc1ccc(C[C@H]2OC(=O)[C@H](CC(C)C)N(C)C(=O)[C@@H](C)OC(=O)[C@H](CC(C)C)N(C)C(=O)[C@@H](Cc3ccc(Cn4nc(C)cc4OCC)cc3)OC(=O)[C@H](CC(C)C)N(C)C(=O)[C@@H](C)OC(=O)[C@H](CC(C)C)N(C)C2=O)cc1` [Example 1b-163, (3S,6R,9S,12R,15S,18R,21S,24R)-6,18-bis(4-((5-ethoxy-3-methyl-1H-pyrazol-1-yl)methyl)benzyl)-3,9,15,21-tetraisobutyl-4,10,12,16,22,24-hexamethyl-1,7,13,19-tetraoxa-4,10,16,22-tetraazacyclotetracosan-2,5,8,11,14,17,20,23-octaone] is 0.01 to 0.1 µM; for `CC(C)C[C@H]1C(=O)O[C@H](Cc2ccc(Cn3nc(C4CC4)cc3C3CC3)cc2)C(=O)N(C)[C@@H](CC(C)C)C(=O)O[C@H](C)C(=O)N(C)[C@@H](CC(C)C)C(=O)O[C@H](Cc2ccccc2)C(=O)N(C)[C@@H](CC(C)C)C(=O)O[C@H](C)C(=O)N1C` [Example 2-32, (3S,6R,9S,12R,15S,18R,21S,24R)-6-benzyl-18-(4-((3,5-dicyclopropyl-1H-pyrazol-1-yl)methyl)benzyl)-3,9,15,21-tetraisobutyl-4,10,12,16,22,24-hexamethyl-1,7,13,19-tetraoxa-4,10,16,22-tetraazacyclotetracosan-2,5,8,11,14,17,20,23-octaone] it is 0.01 to 0.1 µM.
